These results are taken from PubChem BioAssay (NCI).

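Step 1: Grow cells in 96-well plates. Step 2: Expose to compound for 48 hours at 5 concentrations. Step 3: Interpolate endpoints linearly; if unreached, use highest concentration. TGI: concentration producing complete growth inhibition.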 Where only a bound is given, the exact number is not on record here.

What all share (assay): NCI-60 cell line screen, 48 h
In assay [1] the test system is NCI-H522 lung.
Assay [2] concerns SF-268 CNS.
Assay [3] has as its system HCT-116 colon.
Assay [4] concerns KM12 colon.
The subject of assay [5] is OVCAR-3 ovarian.
The subject of assay [6] is HL-60(TB) leukemia.
Assay [7] relates to SK-MEL-2 melanoma.
In assay [8] the test system is ACHN renal.
The test system of assay [9] is TK-10 renal.
Assay [10] concerns NCI-H23 lung.
The test system of assay [11] is NCI-H226 lung.
For assay [12], the system named is OVCAR-4 ovarian.
The test system of assay [13] is A498 renal.
The test system of assay [14] is UACC-62 melanoma.
Assay [15] deals with SR leukemia.
Assay [16] relates to SF-539 CNS.

For the compound `CCN(CC)CC1CCCCCCCCCCC1=O` (stereo not drawn), the TGI in [1], in [2], in assay [3], in [4], in assay [5] and in assay [6] was greater than 100 µM each time. The TGI in assay [7], in assay [8], in assay [9], in assay [10], in assay [11] and in assay [12] was greater than 100 µM throughout. Further, the TGI in assay [13], in assay [14] and in assay [15] was greater than 100 µM in each case.

Take `CCCCN(CCCC)CC(O)c1cc(-c2ccc(C(F)(F)F)cc2)nc(-c2ccc(C(F)(F)F)cc2)c1` (stereo not drawn): the TGI in [1], in assay [2], in [3], in assay [5], in assay [6] and in assay [7] was greater than 100 µM in each case. Further, the TGI in assay [8], in assay [9], in [10], in assay [16], in assay [12] and in [13] was greater than 100 µM throughout. Besides, the TGI in [14] and in assay [15] was greater than 100 µM each time.

On to `CCOC(=O)C1(C#N)C(c2ccccc2)CC(O)(c2ccc(OC)cc2)C(C(=O)c2ccc(OC)cc2)C1c1ccccc1` (stereo not drawn), for which the TGI in [1], in [2], in assay [3], in assay [4], in assay [5] and in assay [6] was greater than 100 µM each time. In addition, the TGI in assay [7], in [8], in [9], in assay [10], in [11] and in assay [12] was greater than 100 µM throughout. Moreover, the TGI in [14] and in [15] was greater than 100 µM each time.

Consider `CO/N=C/c1cc(OC)c(OC)c(OC)c1`, for which the TGI in assay [1], in [2], in assay [3], in assay [4], in [5] and in [6] was greater than 100 µM each time. Also, the TGI in assay [7], in [8], in assay [9], in assay [10], in assay [11] and in assay [16] was greater than 100 µM each time. For the same compound, the TGI in [12], in assay [13], in [14] and in assay [15] was greater than 100 µM in each case.

`Cc1cc(N)c(C)c2c1[nH]c1ccc(O)cc12`: the TGI was 41.1 µM in assay [1]; greater than 100 µM in assay [2]; greater than 100 µM in assay [3]; greater than 100 µM in assay [4]; greater than 100 µM in [5]; greater than 100 µM in assay [6]. The TGI in [7], in assay [8], in [9], in assay [10], in [11] and in assay [16] was greater than 100 µM throughout. Further, the TGI in assay [12] and in [15] was greater than 100 µM throughout.

Regarding `COc1ccc(C2C(Cl)C(=O)N2n2cnc3ccccc3c2=O)cc1` (stereo not drawn), the TGI in [1], in [2], in assay [3], in assay [4], in assay [5] and in assay [6] was greater than 100 µM each time. The TGI in assay [7], in assay [8], in [9], in assay [10], in assay [11] and in [12] was greater than 100 µM in each case. Moreover, the TGI in assay [14] and in assay [15] was greater than 100 µM throughout.

On to `COc1cc2cc3c4c(cc(OC)c(OC)c4c2cc1OC)CCN3C(=O)OCCN1CCNCC1`, for which the TGI in assay [1] turned out to be 30.6 µM; in assay [2], 23.3 µM; in [3], 24.2 µM; in assay [4] it was 28.3 µM; in assay [5], 28.8 µM; in [6] it was 30 µM. Moreover, the TGI in assay [7] was 34.2 µM; in assay [8], 28.3 µM; in [9], 28.3 µM; in assay [10], 31.8 µM; in [11] it was 28.1 µM; in assay [16], 28.4 µM. The TGI in assay [12] was determined as 31.3 µM; in [13], 27.8 µM; in assay [14] it was 28.1 µM; in assay [15], 29.8 µM.
